Assay results reported in PubChem BioAssay (NCI).
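Exposure lasted 48 hours, with cells grown in 96-well plates and compounds tested at five concentrations. TGI: concentration producing complete growth inhibition.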

Experiments:
Experiment in all cases: NCI tumour cell line growth inhibition, 48 h
ACHN renal = test system: ACHN renal
HL-60(TB) leukemia = test system: HL-60(TB) leukemia
IGROV1 ovarian = test system: IGROV1 ovarian
MOLT-4 leukemia = test system: MOLT-4 leukemia
SK-MEL-28 melanoma = test system: SK-MEL-28 melanoma
LXFL 529 NSCLC = test system: LXFL 529 NSCLC
CAKI-1 renal = test system: CAKI-1 renal
M14 melanoma = test system: M14 melanoma
SK-MEL-2 melanoma = test system: SK-MEL-2 melanoma
SF-268 CNS = test system: SF-268 CNS
HOP-92 NSCLC = test system: HOP-92 NSCLC
SF-539 CNS = test system: SF-539 CNS
HCC-2998 colon = test system: HCC-2998 colon
K-562 leukemia = test system: K-562 leukemia
SR leukemia = test system: SR leukemia

Measured: TGI

COP(=O)(OC)C(=O)N1N(c2ccc([N+](=O)[O-])cc2)C(=O)C(C)NC1(NNc1ccc([N+](=O)[O-])cc1)P(=O)(OC)OC (centres undefined)
> 100 µM: all assays above

CCN(CC)C(=O)Cc1c(C(=O)N(CC)CC)c(=O)nc2sccn12
not listed: CAKI-1 renal
> 100 µM: all other assays above
